In patent US12551536B2, “Semaglutide in medical therapy” (Novo Nordisk A/S, priority 2017, dated 2026):

What was measured:
Format in all cases: in vivo, human
HbA1c = test: 26-week clinical trial in adult patients with T2D: change in HbA1c; conditions: baseline to week 26
Procedure: (§1) A 26-week, randomized, double-blind clinical trial was carried out with adult patients with T2D, HbA1c 7.0-10.0% (53-86 mmol/mol), and body mass index 24.0-40.0 kg/m^2 who were treated with diet and exercise±metformin. […] The primary endpoint was change in HbA1c from baseline to week 26. Key exclusion criteria were a history of chronic or idiopathic acute pancreatitis and moderate-to-severe renal impairment (estimated glomerular filtration rate <60 mL/min/1.73 m^2).
Trial drug administration: Following a 2-week screening period, patients received trial medication for 26 weeks, followed by a 7-week follow-up period.

[1] = 52-week clinical trial in obese subjects without diabetes mellitus: gastrointestinal adverse events; conditions: for Gastrointestinal adverse events, Observed data, % (percentage of subjects with at least one event) / Nausea, % (percentage of subjects experiencing at least one event) / Nausea, E (number of events) / Nausea, Ne (number of subjects experiencing at least one event) / Gastrointestinal adverse events, Observed data, Ne (number of subjects experiencing at least one event): on-treatment; for Nausea, % (percentage of subjects experiencing at least one event) / Nausea, E (number of events) / Nausea, Ne (number of subjects experiencing at least one event): observed data
Procedure: (§2) This trial was designed as a 52-week, randomised, double-blind, placebo-controlled, sixteen-armed, parallel group, multi-centre, multinational trial comparing once-daily subcutaneous administration of semaglutide in five different doses (ranging from 0.05 mg/day to 0.4 mg/day) with placebo in obese subjects without diabetes mellitus. […] The trial was double-blinded between active and placebo treatment. To ensure a sufficiently large sample of men, no more than 70% of the trial population was allowed to be women and the randomisation was stratified according to sex. Subjects were randomised in a balanced manner (6:1 active:placebo).
(§3) The primary endpoint was relative change from baseline in body weight (%) at 52 weeks. Key secondary endpoints included proportion of subjects with weight loss of ≥5% or ≥10% of baseline body weight at 52 weeks as well as change in body weight from baseline to 52 weeks. Supportive secondary safety endpoints also included gastrointestinal (GI) adverse events (i.e. nausea, vomiting, diarrhoea and constipation). During each site visit the individual subject was asked via open questions if they had experienced any medical problems since the last visit. All medical problems either observed by the site staff or the subject was reported as an adverse event and evaluated for severity and causality by the investigator. For this trial the subjects had site visits every 2 weeks for the first 20 weeks of the trial and afterwards site visits was performed every 4 weeks.
(§4) Subjects in all treatment arms including placebo received nutritional counselling and a calorie-reduced diet by a dietician or equivalent qualified delegate as well as physical activity counselling by a qualified person on a monthly basis beginning at the randomisation visit. The trial population consisted of a total of 957 subjects were randomised. A total of 777 subjects (81.2%) completed 52 weeks of treatment; 180 (18.8%) discontinued treatment prematurely with no obvious dose-dependent trend. Key inclusion criteria for this trial were: Male or female, age ≥18 years at the time of signing inform consent; body mass index (BMI)≥30.0 kg/m2 at the screening visit; and at least one unsuccessful weight loss attempt per investigator judgement. Key exclusion criteria for this trial were: A HbA1c≥6.5% at screening or diagnosed with type 1 or type 2 diabetes mellitus; Treatment with glucose lowering agent(s) within 90 days before screening; Screening calcitonin ≥50 ng/L (pg/mL); Personal or family history of medullary thyroid carcinoma or multiple endocrine neoplasia syndrome type 2; History of pancreatitis (acute or chronic); Obesity induced by endocrine disorders (e.g. Cushing Syndrome); Treatment with any medication within 90 days before screening that based on investigator's judgement may cause significant weight change; Previous surgical treatment for obesity (liposuction and/or abdominoplasty performed >1 year before screening is allowed); History of major depressive disorder within 2 years before randomisation; Any lifetime history of a suicidal attempt; and Female who is pregnant, breast-feeding or intends to become pregnant or is of childbearing potential and not using an adequate contraceptive method (adequate contraceptive measures as required by local regulation or practice).

[2] = 26-week clinical trial in adult patients with T2D: body weight change; conditions: on-treatment, estimated data
Procedure: as §1
Trial drug administration: Following a 2-week screening period, patients received trial medication for 26 weeks, followed by a 7-week follow-up period. […] The trial was double blinded within (but not between) each dose level of semaglutide, liraglutide and placebo, as treatment was volume matched.

[3] = 52-week clinical trial of once-daily semaglutide in obese subjects without diabetes mellitus: change in body weight; conditions: for Change in body weight (%) from baseline to week 52, Change (%) Estimate / Change in body weight, Treatment difference (%-points) vs. Lira 3.0 mg / Change in body weight, Treatment difference (%-points) vs. Placebo Pool: ANCOVA, J2R-MI; for Change in body weight (%) from baseline at week 52, Model prediction (Estimate) %: Emax dose-response modelling; for Change in body weight (%) from baseline to week 52, Subjects in-trial, Mean / Change in body weight (%) from baseline to week 52, Subjects on-treatment, Mean: observed data
Procedure: as §2, §3, §4
Statistical analyses of effect endpoints: The primary analysis was based on a ‘jump-to-reference’ multiple imputation approach (J2R-MI). Week 52 data from subjects who discontinued trial product and returned for the visit at week 52 were included in the analysis. First, an imputation model using observed week 52 body weight (kg) measurements from the placebo arm only were estimated. Second, multiple copies (1000) of the full analysis set were generated by imputing missing values in all treatment arms from the imputation model. The primary endpoint was calculated in each complete data set and analysed using an analysis of covariance (ANCOVA) model. […]

[4] = Sema 0.05 mg once daily s.c., N 103
[5] = Sema 0.1 mg once daily s.c., N 102
[6] = Sema 0.2 mg once daily s.c., N 103
[7] = Sema 0.3 mg once daily s.c., N 103
[8] = Sema 0.4 mg once daily s.c., N 102
[9] = Sema 0.05 mg once daily s.c., week 52
[10] = Sema 0.1 mg once daily s.c., week 52
[11] = Sema 0.2 mg once daily s.c., week 52
[12] = Sema 0.3 mg once daily s.c., week 52
[13] = Sema 0.4 mg once daily s.c., week 52

N^6.26-{18-[N-(17-carboxyheptadecanoyl)-L-γ-glutamyl]-10-oxo-3,6,12,15-tetraoxa-9,18-diazaoctadecanoyl}-[8-(2-amino-2-propanoic acid),34-L-arginine]human glucagon-like peptide 1(7-37) [Sema]
Mean Change in HbA1c % (SD) (HbA1c; Sema 0.05 mg once daily s.c.): −0.97 (0.85) % | Mean Change in HbA1c % (SD) (HbA1c; Sema 0.1 mg once daily s.c.): −1.30 (1.03) % | Mean Change in HbA1c % (SD) (HbA1c; Sema 0.2 mg once daily s.c.): −1.65 (0.79) % | Mean Change in HbA1c % (SD) (HbA1c; Sema 0.3 mg once daily s.c.): −1.96 (0.95) % | Corresponding Sema dose (dosage of semaglutide providing the same level of gastrointestinal adverse events as 3.0 mg liraglutide) ([1]; Lira 3.0 mg, Emax model, Estimate [95% CI]): 0.28 mg | Gastrointestinal adverse events, Observed data, % (percentage of subjects with at least one event) ([1]; Sema 0.05 mg once daily s.c.): 62.1% | Nausea, % (percentage of subjects experiencing at least one event) ([1]; Sema 0.05 mg once daily s.c.): 31.1% | Nausea, E (number of events) ([1]; Sema 0.05 mg once daily s.c.): 41 | Nausea, Ne (number of subjects experiencing at least one event) [1, 4]: 32 | Gastrointestinal adverse events, Observed data, Ne (number of subjects experiencing at least one event) [1, 4]: 64 | Gastrointestinal adverse events, Observed data, % (percentage of subjects with at least one event) ([1]; Sema 0.1 mg once daily s.c.): 70.6% | Nausea, % (percentage of subjects experiencing at least one event) ([1]; Sema 0.1 mg once daily s.c.): 41.2% | Nausea, E (number of events) ([1]; Sema 0.1 mg once daily s.c.): 80 | Nausea, Ne (number of subjects experiencing at least one event) [1, 5]: 42 | Gastrointestinal adverse events, Observed data, Ne (number of subjects experiencing at least one event) [1, 5]: 72 | Gastrointestinal adverse events, Observed data, % (percentage of subjects with at least one event) ([1]; Sema 0.2 mg once daily s.c.): 69.9% | Nausea, % (percentage of subjects experiencing at least one event) ([1]; Sema 0.2 mg once daily s.c.): 43.7% | Nausea, E (number of events) ([1]; Sema 0.2 mg once daily s.c.): 74 | Nausea, Ne (number of subjects experiencing at least one event) [1, 6]: 45 | Gastrointestinal adverse events, Observed data, Ne (number of subjects experiencing at least one event) [1, 6]: 72 | Gastrointestinal adverse events, Observed data, % (percentage of subjects with at least one event) ([1]; Sema 0.3 mg once daily s.c.): 69.9% | Nausea, % (percentage of subjects experiencing at least one event) ([1]; Sema 0.3 mg once daily s.c.): 41.7% | Nausea, E (number of events) ([1]; Sema 0.3 mg once daily s.c.): 69 | Nausea, Ne (number of subjects experiencing at least one event) [1, 7]: 43 | Gastrointestinal adverse events, Observed data, Ne (number of subjects experiencing at least one event) [1, 7]: 72 | Gastrointestinal adverse events, Observed data, % (percentage of subjects with at least one event) ([1]; Sema 0.4 mg once daily s.c.): 82.4% | Nausea, % (percentage of subjects experiencing at least one event) ([1]; Sema 0.4 mg once daily s.c.): 48.0% | Nausea, E (number of events) ([1]; Sema 0.4 mg once daily s.c.): 94 | Nausea, Ne (number of subjects experiencing at least one event) [1, 8]: 49 | Gastrointestinal adverse events, Observed data, Ne (number of subjects experiencing at least one event) [1, 8]: 84 | Body weight change, mean (kg), baseline to week 26 ([2]; Sema 0.05 mg once daily s.c.): -2.8 kg | Body weight change, mean (kg), baseline to week 26 ([2]; Sema 0.1 mg once daily s.c.): -4.3 kg | Body weight change, mean (kg), baseline to week 26 ([2]; Sema 0.2 mg once daily s.c.): -6.7 kg | Body weight change, mean (kg), baseline to week 26 ([2]; Sema 0.3 mg once daily s.c.): -8.2 kg | Corresponding Sema dose (dosage of semaglutide providing the same body weight reduction as 3.0 mg liraglutide) ([3]; Lira 3.0 mg, Emax model, Estimate [95% CI], week 52): 0.08 mg | Change in body weight (%) from baseline to week 52, Change (%) Estimate ([3]; Sema 0.05 mg once daily s.c.): −5.99% | Change in body weight, Treatment difference (%-points) vs. Lira 3.0 mg [3, 9]: 1.77 %-points | Change in body weight, Treatment difference (%-points) vs. Placebo Pool [3, 9]: −3.70 %-points | Change in body weight (%) from baseline at week 52, Model prediction (Estimate) % ([3]; Sema 0.05 mg): −6.19% | Change in body weight (%) from baseline to week 52, Change (%) Estimate ([3]; Sema 0.1 mg once daily s.c.): −8.62% | Change in body weight (%) from baseline to week 52, Subjects in-trial, Mean ([3]; Sema 0.1 mg once daily s.c.): −9.11% | Change in body weight (%) from baseline to week 52, Subjects on-treatment, Mean ([3]; Sema 0.1 mg once daily s.c.): −9.76% | Change in body weight, Treatment difference (%-points) vs. Lira 3.0 mg [3, 10]: −0.85 %-points | Change in body weight, Treatment difference (%-points) vs. Placebo Pool [3, 10]: −6.32 %-points | Change in body weight (%) from baseline at week 52, Model prediction (Estimate) % ([3]; Sema 0.1 mg): −8.47% | Change in body weight (%) from baseline to week 52, Change (%) Estimate ([3]; Sema 0.2 mg once daily s.c.): −11.60% | Change in body weight (%) from baseline to week 52, Subjects in-trial, Mean ([3]; Sema 0.2 mg once daily s.c.): −12.54% | Change in body weight (%) from baseline to week 52, Subjects on-treatment, Mean ([3]; Sema 0.2 mg once daily s.c.): −13.68% | Change in body weight, Treatment difference (%-points) vs. Lira 3.0 mg [3, 11]: −3.83 %-points | Change in body weight, Treatment difference (%-points) vs. Placebo Pool [3, 11]: −9.31 %-points | Change in body weight (%) from baseline at week 52, Model prediction (Estimate) % ([3]; Sema 0.2 mg): −11.00% | Change in body weight (%) from baseline to week 52, Change (%) Estimate ([3]; Sema 0.3 mg once daily s.c.): −11.17% | Change in body weight (%) from baseline to week 52, Subjects in-trial, Mean ([3]; Sema 0.3 mg once daily s.c.): −12.06% | Change in body weight (%) from baseline to week 52, Subjects on-treatment, Mean ([3]; Sema 0.3 mg once daily s.c.): −12.97% | Change in body weight, Treatment difference (%-points) vs. Lira 3.0 mg [3, 12]: −3.41 %-points | Change in body weight, Treatment difference (%-points) vs. Placebo Pool [3, 12]: −8.88 %-points | Change in body weight (%) from baseline at week 52, Model prediction (Estimate) % ([3]; Sema 0.3 mg): −12.37% | Change in body weight (%) from baseline to week 52, Change (%) Estimate ([3]; Sema 0.4 mg once daily s.c.): −13.84% | Change in body weight (%) from baseline to week 52, Subjects in-trial, Mean ([3]; Sema 0.4 mg once daily s.c.): −13.96% | Change in body weight (%) from baseline to week 52, Subjects on-treatment, Mean ([3]; Sema 0.4 mg once daily s.c.): −16.17% | Change in body weight, Treatment difference (%-points) vs. Lira 3.0 mg [3, 13]: −6.08 %-points | Change in body weight, Treatment difference (%-points) vs. Placebo Pool [3, 13]: −11.55 %-points | Change in body weight (%) from baseline at week 52, Model prediction (Estimate) % ([3]; Sema 0.4 mg): −13.24% | Change in body weight (%) from baseline to week 52, Subjects in-trial, Mean ([3]; Sema 0.5 mg once daily s.c.): −6.33% | Change in body weight (%) from baseline to week 52, Subjects on-treatment, Mean ([3]; Sema 0.5 mg once daily s.c.): −6.79%
